The target in experiment [1] is T1, Cbl-b (Homo sapiens, UniProt Q13191). The experiment is described as follows: Cbl-b activity assay (Cbl-b inhibition assay), TR-FRET of Cbl-b interaction with UbcH5B-Ub. The experiment is classed as biochemical. The procedure, abridged:
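UbcH5B (C85K) conjugated to N-terminally Bodipy-Fluorescein-labeled ubiquitin served as the fluorescent partner. After compound preincubation, Src kinase (60 nM) with 1 mM ATP and 5 mM MgCl2 (final) was added for 1.5 h, followed by a further 1 h incubation. Some values were obtained with 50 mM NaCl and 30 nM Src.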

Experiment [2] deals with T1, Cbl-b. As to the kind of experiment: Cbl-b inhibition assay (Cbl-b activity assay, FRET, Biological Example 1; 100 mM NaCl, 60 nM Src kinase). The experiment is classed as biochemical. The following applies: upper bound stated in text lists; read-out: IC50 values in the Cbl-b inhibition assay of Biological Example 1. The procedure, abridged:
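Binding-based Cbl-b activity assay. Src-phosphorylated, N-terminally biotin-Avi-tagged Cbl-b recruits labelled UbcH5B-Ub, and proximity to streptavidin-terbium yields FRET.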

The target in another experiment is Cbl-b (residues 36-427) (Homo sapiens, UniProt Q13191). The experiment is described as follows: Cbl-b binding assay (SPR, Biacore T200). To be noted: 20° C., 1:1 binding model. The procedure, abridged: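 Steps: capture protein on NeutrAvidin surface; inject compound dilutions (8 or 10 points from 100 or 50 μM) 50 s; allow 90-180 s dissociation; regenerate 20 s with 0.3 M NaCl. Runs at 20° C in HEPES pH 7.5/100 mM NaCl/2% DMSO; 1:1 fitting.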

Where [3] appears, read: assay buffer with 100 mM NaCl, 60 nM Src kinase, read-out: Cbl-b activity IC50.

A value given as a limit tells only on which side of the number the result lay.

T1 sequence (Q13191 36-427): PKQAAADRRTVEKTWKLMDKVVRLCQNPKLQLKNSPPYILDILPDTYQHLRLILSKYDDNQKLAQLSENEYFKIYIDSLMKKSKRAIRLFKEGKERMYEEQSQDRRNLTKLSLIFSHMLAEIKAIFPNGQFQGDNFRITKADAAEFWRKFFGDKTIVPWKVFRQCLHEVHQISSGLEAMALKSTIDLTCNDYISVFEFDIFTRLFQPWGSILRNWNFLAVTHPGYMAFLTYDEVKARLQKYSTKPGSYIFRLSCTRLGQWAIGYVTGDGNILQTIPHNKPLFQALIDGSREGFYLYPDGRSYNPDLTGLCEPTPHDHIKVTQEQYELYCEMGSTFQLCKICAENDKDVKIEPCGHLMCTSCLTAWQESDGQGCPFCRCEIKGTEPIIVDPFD
Cbl-b (residues 36-427), sequence (Q13191 36-427): as above

With `C[C@H](Sc1nncn1C)c1cccc(NC(=O)c2cc(C(=O)N3CCC[C@@H](O)C3)ccn2)c1` [Compound 149, 4-((R)-3-hydroxypiperidine-1-carbonyl)-N-(3-((S)-1-((4-methyl-4H-1,2,4-triazol-3-yl)thio)ethyl)phenyl)picolinamide], the IC50 on Cbl-b [1] (setting [3]) is 3 to 10 µM; at Cbl-b [2] it was not above 10 µM. In addition, at Cbl-b (residues 36-427), the dissociation constant Kd was more than 10 µM.
For `C[C@H](Sc1nncn1C)c1cccc(NC(=O)c2cc(C(=O)N3CCC[C@H](O)C3)ccn2)c1` [Compound 150, 4-((S)-3-hydroxypiperidine-1-carbonyl)-N-(3-((S)-1-((4-methyl-4H-1,2,4-triazol-3-yl)thio)ethyl)phenyl)picolinamide], in that order: 3 to 10 µM, not above 10 µM and more than 10 µM.
In the same order, the values of `C[C@H](Sc1nncn1C)c1cccc(NC(=O)c2cc(C(=O)N3C[C@@H](O)C[C@H]3C)ccn2)c1` [Compound 152, 4-((2R,4S)-4-hydroxy-2-methylpyrrolidine-1-carbonyl)-N-(3-((S)-1-((4-methyl-4H-1,2,4-triazol-3-yl)thio)ethyl)phenyl)picolinamide] are 3 to 10 µM, not above 10 µM and 3 to 10 µM.
Regarding `C[C@H](Sc1nncn1C)c1cccc(NC(=O)c2cc(C(=O)N3C[C@H](O)C[C@H]3C)ccn2)c1` [Compound 153, 4-((2R,4R)-4-hydroxy-2-methylpyrrolidine-1-carbonyl)-N-(3-((S)-1-((4-methyl-4H-1,2,4-triazol-3-yl)thio)ethyl)phenyl)picolinamide], the IC50 at Cbl-b [1] (setting [3]) is 3 to 10 µM; at Cbl-b [2] it was not above 10 µM. This compound returned a Kd on Cbl-b (residues 36-427) of more than 10 µM.
In the case of `C[C@H](Sc1nncn1C)c1cccc(NC(=O)c2cc(C(=O)N3C[C@@H](O)C[C@@H]3C)ccn2)c1` [Compound 154, 4-((2S,4S)-4-hydroxy-2-methylpyrrolidine-1-carbonyl)-N-(3-((S)-1-((4-methyl-4H-1,2,4-triazol-3-yl)thio)ethyl)phenyl)picolinamide], the IC50 is 3 to 10 µM on Cbl-b [1] (setting [3]) and not above 10 µM on Cbl-b [2]. At Cbl-b (residues 36-427), this compound showed a Kd of more than 10 µM.
In the case of `C[C@H](Sc1nncn1C)c1cccc(NC(=O)c2cc(C(=O)N3C[C@H](O)[C@@H](O)C3)ccn2)c1` [Compound 155, 4-[[(3S,4S)-3,4-dihydroxypyrrolidin-1-yl]carbonyl]-N-[3-[(1S)-1-[(4-methyl-4H-1,2,4-triazol-3-yl)sulfanyl]ethyl]phenyl]pyridine-2-carboxamide], the IC50 on Cbl-b [1] (setting [3]) was 1 to 3 µM; on Cbl-b [2], not above 10 µM. Further, the Kd on Cbl-b (residues 36-427) lay within 3 to 10 µM.
As to `C[C@H](Sc1nncn1C)c1cccc(NC(=O)c2cc(C(=O)NC[C@@H](C)O)ccn2)c1` [Compound 156, N^4-((R)-2-hydroxypropyl)-N^2-(3-((S)-1-((4-methyl-4H-1,2,4-triazol-3-yl)thio)ethyl)phenyl)pyridine-2,4-dicarboxamide], the IC50 on Cbl-b [1] (setting [3]) was 3 to 10 µM; at Cbl-b [2] it was not above 10 µM. Further, on Cbl-b (residues 36-427), the Kd lay within 3 to 10 µM.
In the case of `C[C@H](O)CNC(=O)c1ccnc(C(=O)Nc2cccc([C@H](C)Sc3nncn3C)c2)c1` [Compound 157, N^4-((S)-2-hydroxypropyl)-N^2-(3-((S)-1-((4-methyl-4H-1,2,4-triazol-3-yl)thio)ethyl)phenyl)pyridine-2,4-dicarboxamide], the IC50 was 3 to 10 µM at Cbl-b [1] (setting [3]) and not above 10 µM at Cbl-b [2]. The compound also returned a Kd at Cbl-b (residues 36-427) of 3 to 10 µM.
As to `C[C@H](Sc1nncn1C)c1cccc(NC(=O)c2cc(C(=O)N3CC[C@@H](N(C)C)C3)ccn2)c1` [Compound 159, 4-((R)-3-(dimethylamino)pyrrolidine-1-carbonyl)-N-(3-((S)-1-((4-methyl-4H-1,2,4-triazol-3-yl)thio)ethyl)phenyl)picolinamide], the IC50 on Cbl-b [1] (setting [3]) was 3 to 10 µM; on Cbl-b [2] it was not above 10 µM. At Cbl-b (residues 36-427), this compound returned a Kd of 3 to 10 µM.
As to `C[C@H](Sc1nncn1C)c1cccc(NC(=O)c2cc(C(=O)N3CC[C@H](N(C)C)C3)ccn2)c1` [Compound 160, 4-((S)-3-(dimethylamino)pyrrolidine-1-carbonyl)-N-(3-((S)-1-((4-methyl-4H-1,2,4-triazol-3-yl)thio)ethyl)phenyl)picolinamide], the IC50 at Cbl-b [1] (setting [3]) is 3 to 10 µM; on Cbl-b [2] it was not above 10 µM. Further, the Kd at Cbl-b (residues 36-427) is 3 to 10 µM.
For the compound `C[C@@H](Sc1nncn1C)c1cccc(NC(=O)c2cc(C(=O)N3CC[C@H](O)C3)ccn2)c1` [Compound 161, 4-[[(3S)-3-hydroxypyrrolidin-1-yl]carbonyl]-N-[3-[(1R)-1-[(4-methyl-4H-1,2,4-triazol-3-yl)sulfanyl]ethyl]phenyl]pyridine-2-carboxamide], the IC50 at Cbl-b [1] (setting [3]) was 3 to 10 µM; on Cbl-b [2], not above 10 µM. At Cbl-b (residues 36-427), this compound came in with a Kd of more than 10 µM.
On to `CC(Sc1nncn1C)c1cccc(N2Cc3ccc(Cl)cc3C2=O)c1` (stereo not shown) [Compound 163, 6-chloro-2-[3-[1-[(4-methyl-1,2,4-triazol-3-yl)sulfanyl]ethyl]phenyl]isoindolin-1-one], for which the 50% inhibitory concentration (IC50) is 3 to 10 µM on Cbl-b [1] (* assay buffer containing 50 mM NaCl instead of 100 mM NaCl and 30 nM Src kinase instead of 60 nM, read-out: Cbl-b activity IC50 (μM)*); 3 to 10 µM at Cbl-b [1] (setting [3]); not above 10 µM at Cbl-b [2]. The compound also came in with a Kd on Cbl-b (residues 36-427) of 3 to 10 µM.
For the compound `C[C@H](Sc1nncn1C)c1cccc(N2Cc3cc(Cl)ccc3C2=O)c1` [Compound 164, (S)-5-chloro-2-(3-(1-((4-methyl-4H-1,2,4-triazol-3-yl)thio)ethyl)phenyl)isoindolin-1-one], the IC50 at Cbl-b [1] (setting [3]) is 0.301 to 1 µM; at Cbl-b [2], not above 1 µM. This compound had a Kd on Cbl-b (residues 36-427) of 1 to 3 µM.
Turning to `C[C@@H](Sc1nncn1C)c1cccc(N2Cc3c(cccc3C(F)(F)F)C2=O)c1` [Compound 166b, (R)-2-(3-(1-(4-methyl-4H-1,2,4-triazol-3-ylthio)ethyl)phenyl)-4-(trifluoromethyl)isoindolin-1-one], the values for the IC50 on Cbl-b [1] (setting [3]) and at Cbl-b [2] were 1 to 3 µM and not above 10 µM, respectively. Moreover, the Kd on Cbl-b (residues 36-427) was in the range of 3 to 10 µM.
In the case of `C[C@@H](Sc1nncn1C)c1cc(F)cc(N2Cc3c(cccc3C(F)(F)F)C2=O)c1` [Compound 168b, 2-[3-fluoro-5-[(1R)-1-[(4-methyl-1,2,4-triazol-3-yl)sulfanyl]ethyl]phenyl]-4-(trifluoromethyl)isoindolin-1-one], the concentration for half-maximal inhibition (IC50) on Cbl-b [1] (setting [3]) is 1 to 3 µM; at Cbl-b [2], not above 10 µM. Besides, the Kd on Cbl-b (residues 36-427) lay in the range of 1 to 3 µM.
As for `C[C@H](Sc1nncn1C)c1ccc(F)c(N2Cc3c(cccc3C(F)(F)F)C2=O)c1` [Compound 169, 2-[2-fluoro-5-[(1S)-1-[(4-methyl-1,2,4-triazol-3-yl)sulfanyl]ethyl]phenyl]-4-(trifluoromethyl)isoindolin-1-one], the values for the IC50 on Cbl-b [1] (setting [3]) and at Cbl-b [2] were 1 to 3 µM and not above 10 µM, respectively. The compound further returned a Kd at Cbl-b (residues 36-427) of 1 to 3 µM.
Turning to `C[C@@H](Sc1nncn1C)c1ccnc(N2Cc3c(cccc3C(F)(F)F)C2=O)c1` [Compound 172b, (R)-2-(4-(1-((4-methyl-4H-1,2,4-triazol-3-yl)thio)ethyl)pyridin-2-yl)-4-(trifluoromethyl)isoindolin-1-one], the IC50 was 3 to 10 µM at Cbl-b [1] (setting [3]) and not above 10 µM at Cbl-b [2]. Also, on Cbl-b (residues 36-427), the Kd is more than 10 µM.
In the same order, the values of `CC(Sc1nncn1C)c1cc(N)nc(N2Cc3c(cccc3C(F)(F)F)C2=O)c1` (stereo not shown) [Compound 175, 2-[6-amino-4-[1-[(4-methyl-1,2,4-triazol-3-yl)sulfanyl]ethyl]-2-pyridyl]-4-(trifluoromethyl)isoindolin-1-one] are 3 to 10 µM, not above 10 µM and 3 to 10 µM.
In the same order, the values of `CC(CO)Nc1cc(C(C)Sc2nncn2C)cc(N2Cc3c(cccc3C(F)(F)F)C2=O)n1` (stereo not shown) [Compound 176, 2-[6-[(2-hydroxy-1-methyl-ethyl)amino]-4-[1-[(4-methyl-1,2,4-triazol-3-yl)sulfanyl]ethyl]-2-pyridyl]-4-(trifluoromethyl)isoindolin-1-one] are 0.301 to 1 µM, not above 1 µM and 1 to 3 µM.
As to `CC(Sc1nncn1C)c1cc(NC[C@H](C)O)nc(N2Cc3c(cccc3C(F)(F)F)C2=O)c1` (stereo partly drawn) [Compound 177, 2-[6-[[(2S)-2-hydroxypropyl]amino]-4-[1-[(4-methyl-1,2,4-triazol-3-yl)sulfanyl]ethyl]-2-pyridyl]-4-(trifluoromethyl)iso-indolin-1-one], the IC50 on Cbl-b [1] (setting [3]) was 3 to 10 µM; at Cbl-b [2] it was not above 10 µM. Further, at Cbl-b (residues 36-427), the Kd fell in the range of 3 to 10 µM.
Turning to `CCNc1cc(C(C)Sc2nncn2C)cc(N2Cc3c(cccc3C(F)(F)F)C2=O)n1` (stereo not shown) [Compound 178, 2-[6-(ethylamino)-4-[1-[(4-methyl-1,2,4-triazol-3-yl)sulfanyl]ethyl]-2-pyridyl]-4-(trifluoromethyl)isoindolin-1-one], the figures for the IC50 at Cbl-b [1] (setting [3]) and at Cbl-b [2] were 0.301 to 1 µM and not above 1 µM, respectively. At Cbl-b (residues 36-427), this compound showed a Kd of 0.301 to 1 µM.
With `CC(Sc1nncn1C)c1cc(NC2CCOC2)nc(N2Cc3c(cccc3C(F)(F)F)C2=O)c1` (stereo not shown) [Compound 179, 2-(4-(1-((4-methyl-4H-1,2,4-triazol-3-yl)thio)ethyl)-6-((tetrahydrofuran-3-yl)amino)pyridin-2-yl)-4-(trifluoromethyl)isoindolin-1-one], the IC50 on Cbl-b [1] (setting [3]) is 3 to 10 µM; at Cbl-b [2], not above 10 µM. Further, the Kd on Cbl-b (residues 36-427) was in the range of 3 to 10 µM.

For the origin of these results see US20220324835A1 (Nurix Therapeutics, Inc., priority 2018, published 2022).
